Measurements published in US7135590B2, “Gallic acid derivative and process of preparing the same” (Council of Scientific and Industrial Research, priority 2003, dated 2006).

How the values were obtained:
Bacopa monnieri = test: Growth promoting activity using Bacopa sensor system; format: in vivo
Description: For testing the growth promoting effect of methanone-(3′,4′,5′-trimethoxy) phenyl, 1-naphthyl, 2-O-4″-ethyl but-2″-enoate, the compounds was dissolved in DMSO and added into the medium at 1.0 μg/ml. Only solvent was used as a control in the experiment for comparison. A fast propagating strain of Bacopa monnieri developed as a biosensor system through tissue culture at CIMAP (Khanuja et al., 2001, J Environa Pathol, Toxicol and Onco (JEPTO), 20:pp. 15 to 22) was used in the tests. The MS basal medium (Murashige and Skoog, 1962, Physiol. Planta. 15: pp. 473 to 497) supplemented with test compounds was used in the assays. Measured 0.5 to 1.0 ml medium was poured into 1.5 ml graduated microcentrifuge tubes. Twig cuttings of 2.5 cm were inoculated in 10 replicates for each treatment. These inoculated tubes were put into a half transparent desiccator allowing air passage through sterile cotton plugs fixed on opening vent. The tubes were placed such that the medium-containing portion of the tubes where roots would be initiating is inserted in to the holes of the stand made from a thermocol sheet. These desiccators were incubated at normal ambient temperature of 25 to 28° C. with 14 hours light and 10 hours dark cycle. The root initiation, shoot elongation, callus induction, shoot proliferation and wilting was recorded from day 2 to 14 every 24 hours.

Mentha arvensis = test: Growth promoting activity with Mentha arvensis internode explants; format: in vivo
Description: To confirm the growth promoting activity of methanone-(3′,4′,5′-trimethoxy) phenyl, 1-naphthyl, 2-O-4″-ethyl but-2″-enoate, it was tested with a medicinal and aromatic plant species Mentha arvensis. The explants used were 0.5 cm long pieces of the second and third internodes of the shoots formed from axillary buds and culture. The internode segments were inoculated in MS basal media (Murashige and Skoog, 1962, Physiol. Planta. 15: pp. 473 to 497) containing vitamins 100 μg/ml, myo-inositol 3%, w/v, sucrose 1.5% w/v, Agar and different concentrations of auxins and cytokinin. Different concentrations of 1-naphthalene acetic acid (NM) (0.0, 0.2, 2.0 μg/ml) were used in combination with different concentrations of 6 benzyl amino purine (BAP) (0, 10 & 5 μg/ml). On each kind of media […] of the explants were inoculated into three petriplates with each plates containing 4 explants. Compound 1 was serially replaced with each concentration of NM and BAP individually to observe its growth promoting activity. The experiment was arranged in the form of a completely randomized design (CRD).
Cultures were maintained at 25±2° C. and 400 to 600 lux light intensity with 16 h photoperiod. The response of explants was recorded every 24 h over 4 week periods. […] The proportional increase in biomass was recorded by taking the fresh weight of the growing tissue during sub culturing and dividing the increase with the initial weight.
At the end of 12 weeks from inoculation the shoots were separated and individually transferred to MS basal media containing vitamins for rooting. The rooted plantlets were subsequently transferred to pods in a green house.
The basal medium for studying the response was MS 0 (Murashige and Skoog, 1962, Physiol. Planta. 15: pp. 473 to 497) supplemented with 0.2 mg/L IAA (indole acetic acid) and 5 mg/L BAP (benzene amino purine).
The basal medium for studying the response was MS 0 (Murashige and Skoog, 1962, Physiol. Planta. 15: pp. 473 to 497) supplemented with 2mg/L IAA (indole acetic acid) and 10 mg/L BAP (benzene amino purine).

SMILES: CCOC(=O)C=CCOc1ccc2ccccc2c1C(=O)c1cc(OC)c(OC)c(OC)c1 [Compound 1, methanone-(3′,4′,5′-trimethoxy) phenyl, 1-naphthyl 2-O-4″-ethyl but-2″-enoate]
- Shoot Elongation (Bacopa monnieri; 1.0 μg/ml in MS basal medium, 2.5 cm twig cuttings, 10 replicates, recorded day 2 to 14, control 1.0): 1.6 cms
- Browning Yellowing Death (Bacopa monnieri; 1.0 μg/ml in MS basal medium, twig cuttings, day 2 to 14): Nil
- Root Elongation (Bacopa monnieri; 1.0 μg/ml in MS basal medium, twig cuttings, day 2 to 14, control 0.8): 0.8 cms
- Branching (Bacopa monnieri; 1.0 μg/ml in MS basal medium, twig cuttings, day 2 to 14, control 2.0): 2.0 nos
- Number of Roots (Bacopa monnieri; 1.0 μg/ml in MS basal medium, twig cuttings, day 2 to 14, control 2 + 2): 2 + 2 nos
- Number of Leaves (Bacopa monnieri; 1.0 μg/ml in MS basal medium, twig cuttings, day 2 to 14, control 5.0): 11.0 nos
- enhances the shoot elongation (Bacopa monnieri; within 15 days): about 1.6 cm
- Number of shoots observed after three weeks (Mentha arvensis; Medium A2 with IAA replaced: BAP 5.0, Compound 1 0.2, no roots): 1–2 shoots shoots per explant
- Number of shoots observed after three weeks (Mentha arvensis; Medium A3 with IAA replaced: BAP 10.0, Compound 1 2.0, single root in one replication): 3–4 shoots shoots per explant
- shoots produced (Mentha arvensis; within three weeks in medium A3): 3 to 4 shoots
